Assay results from patent publication US8501166B2, “Pyrimidinyl indole compounds” (Hutchison Medipharma Limited, priority 2010, dated 2013).
Structures can show the parent of a compound that is named as a salt. Where two headings read alike, the source gives them in different places.

Columns and labels:
Skov3-luc cells = experiment: Cell viability test, combination study, Skov3-luc; type: cell-based; settings: Homo sapiens, 72 h, read-out: Ave. Inhibition rate
Description: To evaluate biological activity of a compound in vitro, the cell viability test is applied, in which, IKKβ receptor plays an important role in cell survival and proliferation. Once the IKKβ pathway is blocked by inhibitors, a cell can go through apoptosis or death. The cell viability test provides information on cell survival after treatment with IKK inhibitors.
BxPC-3 cells (ATCC #CRL-1687; human pancreatic cancer cell line) are grown in Roswell Park Memorial Institute (RPMI) 1640 media (Gibco #A10491-01) supplemented with 10% fetal bovine serum (FBS) (Gibco #10099-141). Skov3-luc cells (ATCC, human ovarian carcinoma cell line) are grown in McCoy's 5a medium (Gibco#16600) supplemented with 10% FBS (Gibco#10099-141). For compound testing, BxPc-3 and Skov3-Luc cells are seeded at 2000 and 5000 cells/well respectively in 100 μL of corresponding media specified above for each cell line in 96-well plates 20 h prior to treatment. Cells are treated with a test compound at eight different concentrations in the presence of 0.5% DMSO for 72 h. Cell death in each well is determined by the addition of 20 μL of the One Solution Reagent (CELLTITER 96® AQueous One Solution Cell Proliferation Assay, Promega #G3580). After 2-4 h of incubation at 37° C., optical densities at 492 nm are measured with a microplate reader Inhibition of cell viability is determined by comparison to the control cells treated in the absence of a test compound.
For the combination study of the compound with other antitumor agents, BxPc-3 and Skov3-Luc cells are seeded at 2000 and 5000 cells/well respectively in 100 μL corresponding media specified above for each cell line in 96-well plates 20 h prior to the treatment. […] Cell death in each well is determined by the addition of 20 μL of the One Solution Reagent (CELLTITER 96® AQueous One Solution Cell Proliferation Assay, Promega #G3580). After 2-4 h of incubation at 37° C., optical densities at 492 nm are measured with a microplate reader Inhibition of cell viability is determined by comparison to the control cells treated in the absence of a test compound. […]

[1] = system: LPS-induced plasma IL-6 production; experiment: LPS-induced plasma cytokine production in mouse, IL-6; type: in vivo, Balb/c mice; settings: oral 1 h before LPS 0.4 mg/kg i.p.
Description: (§1) Alternately, the compound is screened for its ability to inhibit the LPS-induced cytokine production in rat plasma according to the method reported in the literature (Ziegelbauer K, Gantner F, Lukacs N W, et al. Br J. Pharmacol. 2005,145(2):178-92). Briefly, Lewis rats (male, body weight 140 g-180 g) are used in the experiments. Animals (8/group) are given 1 to 100 mg/kg of the testing compound (suspension in 35% solutol & 60% PEG400 & 5% PG) or vehicle by oral gavage at 1 h prior to intraperitoneal administration of LPS 0.4 mg/kg. Ninety minutes after the intraperitoneal administration of LPS, blood is collected in heparin anticoagulated tubes to measure TNFα using R&D System ELISA Kit based on the general Kit protocols. The plasma sample is diluted 100 fold with the dilution buffer and 50 μL of diluted sample is used in each measurement. The plate is read on a SPECTRAMAX® M2e Plus Plate Reader and TNFα levels are analyzed based on the standard curve. The drug levels in plasma are measured with LC-MS-MS. […] Alternately, the compound is screened for its ability to inhibit the LPS-induced cytokine production in mouse plasma. Balb/c mice (female, body weight 18-20 g) are used in the experiments. […] The plate is read on a SPECTRMAX® M2e Plus Plate Reader and the data is analyzed using a standard curve.

[2] = system: LPS-induced plasma IL-1β production; experiment: LPS-induced plasma cytokine production in mouse, IL-1β; type: in vivo, Balb/c mice; settings: even at the dose of 100 mg/kg
Description: as §1

[3] = system: OVA-induced airway inflammation; experiment: Ovalbumin (OVA)-induced pulmonary inflammation in mice; type: in vivo, Balb/c mice
Description: A compound of the present invention is tested in an OVA-induced pulmonary inflammation model in mice essentially as described in a method reported in the literature (Muriel Pichavant, Sho Goya, Eckard Hamelmann, Erwin W. Gelfand, and Dale T. Umetsu. Animal Models of Airway Sensitization. Current Protocols in Immunology. (1999) 15.18.1-15.18.13). Briefly, female Balb/c mice weighing from 18 to 20 g are sensitized by introperitoneal injection of 100 μL of saline containing 20 μg of OVA and 2 mg of aluminum hydroxide on day 1 and 14. On days 28, 29 and 30, mice are challenged once each by aerosolizing 1% ovalbumin (OVA) in phosphate buffered saline (PBS) for 20 minutes with Buxco Mass Dosing System. […] On day 32, animals from each group are anesthetized with 1% of pentobarbital sodium. The thoracic and abdominal cavities are opened and plasma is collected from centrifuged specimens. The trachea is then dissected and transected. Through the insertion of an 18-gauge catheter into the trachea, the lungs are lavaged with a total of 1.5 mL of sterile PBS and then placed into a specimen container. Cell-free BAL supernatants are obtained by centrifugation of BAL fluids. All serum and BAL supernatants are stored at −80° C. until use. Differential cell counts are performed on cytospin preparations of BAL cells for cell counting and cytokine determination. After the collection of BAL supernatants, the lungs of recipient mice are removed en bloc and fixed by an intratracheal instillation of 10% buffered formalin (in PBS). Three to six paraffin sections are obtained from the perihilar regions of recipient lungs, stained with hematoxylin and eosin, and examined under light microscopy for pathological study.

| SMILES | inhibition at 12.5 µM (Skov3-luc cells; Example 1 12.5 μM alone) [%] | inhibition at 12.5 µM (Skov3-luc cells; Vincristine 0.25 μM + Example 1 12.5 μM) [%] | ED50 [1] [mg/kg] | effect on IL-1β production [2] | decrease of eosinophil cell numbers ([3]; 1 mg/kg (bid)) [%] | decrease of eosinophil cell numbers ([3]; 3 mg/kg (bid)) [%] | decrease of eosinophil cell numbers ([3]; 10 mg/kg (bid), p<0.05) [%] | reduction of IL-13 production ([3]; 10 mg/kg, p<0.05) [%] | decrease of eosinophil cell numbers ([3]; 30 mg/kg (bid), p<0.05) [%] | reduction of IL-13 production ([3]; 30 mg/kg, p<0.01) [%] | lung histology, hematoxylin and eosin stains ([3]; Example 2 at 1 to 30 mg/kg) |
| --- | --- | --- | --- | --- | --- | --- | --- | --- | --- | --- | --- |
| O=C(NC1CC1)c1cccc2[nH]c(-c3nc(N[C@@H]4CCC[C@@H]4O)ncc3Cl)cc12 [Example 1, 2-{5-Chloro-2-[(1R,2S)-2-hydroxycyclopentylamino]pyrimidin-4-yl}-N-cyclopropyl-1H-indole-4-carboxamide hydrochloride] | 21.8 | 82.3 |  |  |  |  |  |  |  |  |  |
| Cl.O=C(NC1CC1)c1cccc2[nH]c(-c3nc(N[C@@H]4CCC[C@H]4O)ncc3Cl)cc12 [Example 2, 2-{5-Chloro-2-[(1R,2R)-2-hydroxycyclopentylamino]pyrimidin-4-yl}-N-cyclopropyl-1H-indole-4-carboxamide hydrochloride] |  |  | 15.1 | no effect was observed | 58.6 | 49.3 | 94.1 | 73.0 | 90.2 | 85.1 | improvement in pulmonary inflammation |
